# Assay results published in PubChem BioAssay AID1963842 (Molecular Pharmacology Branch, DTP, NCI, 2024).
# System: 677734-321-R-J1-PDC complex spheroid viability
# Experiment: Anticancer human tumor 677734-321-R-J1-PDC patient-derived soft tissue sarcoma cell line growth inhibition [POLQ]
# Conditions: for IC50: curve of first compound; for viability, T/C: stronger effect = lower value
# In short: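 Growth inhibition in 3D: complex spheroids (tumor PDC, HUVEC, MSC) treated with POLQ inhibitor combinations; where Cmax unknown, highest tested concentration 10 microM, except SN-38 at 1 microM.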
# [1] = second compound 0.0316 µM, first compound 0.0316 µM
# [2] = second compound 0.0316 µM, first compound 0.1 µM
# [3] = second compound 0.0316 µM, first compound 0.316 µM
# [4] = second compound 0.0316 µM, first compound 1 µM
# [5] = second compound 0.0316 µM, first compound 3.16 µM
# [6] = second compound 0.0316 µM, first compound 10 µM
# [7] = second compound 0.1 µM, first compound 0.0316 µM
# [8] = second compound 0.1 µM, first compound 0.1 µM
# [9] = second compound 0.1 µM, first compound 0.316 µM
# [10] = second compound 0.1 µM, first compound 1 µM
# [11] = second compound 0.1 µM, first compound 3.16 µM
# [12] = second compound 0.1 µM, first compound 10 µM
# [13] = second compound 0.316 µM, first compound 0.0316 µM
# [14] = second compound 0.316 µM, first compound 0.1 µM
# [15] = second compound 0.316 µM, first compound 0.316 µM
# [16] = second compound 0.316 µM, first compound 1 µM
# [17] = second compound 0.316 µM, first compound 3.16 µM
# [18] = second compound 0.316 µM, first compound 10 µM
# [19] = second compound 1 µM, first compound 0.0316 µM
# [20] = second compound 1 µM, first compound 0.1 µM
# [21] = second compound 1 µM, first compound 0.316 µM
# [22] = second compound 1 µM, first compound 1 µM
# [23] = second compound 1 µM, first compound 3.16 µM
# [24] = second compound 1 µM, first compound 10 µM
# [25] = second compound 3.16 µM, first compound 0.0316 µM
# [26] = second compound 3.16 µM, first compound 0.1 µM
# [27] = second compound 3.16 µM, first compound 0.316 µM
# [28] = second compound 3.16 µM, first compound 1 µM
# [29] = second compound 3.16 µM, first compound 3.16 µM
# [30] = second compound 3.16 µM, first compound 10 µM
# [31] = second compound 10 µM, first compound 0.0316 µM
# [32] = second compound 10 µM, first compound 0.1 µM
# [33] = second compound 10 µM, first compound 0.316 µM
# [34] = second compound 10 µM, first compound 1 µM
# [35] = second compound 10 µM, first compound 3.16 µM
# [36] = second compound 10 µM, first compound 10 µM
# 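Also: spheroids exposed to compounds for one week.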
# 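For viability, T/C in this document: 100% = vehicle DMSO treated spheroids.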
smiles,measurement,setting,value
CCc1cc2c(N3CCc4c(cc(Cn5ccnc5)cc4-c4cn(C)nc4C(F)(F)F)C3=O)cc(C)nc2c(OC)n1 + Cc1cccc(N(C)C(=O)C2C(O)CCN2c2nc(C)cc(C(F)(F)F)c2C#N)c1,IC50,second compound 0.0316 µM,6.44 µM
same,IC50,second compound 0.1 µM,5.35 µM
same,IC50,second compound 0.316 µM,4.3 µM
same,IC50,second compound 1 µM,5.15 µM
same,IC50,second compound 3.16 µM,3.65 µM
same,IC50,second compound 10 µM,2.27 µM
same,"viability, T/C",[1],104%
same,"viability, T/C",[2],116%
same,"viability, T/C",[3],84%
same,"viability, T/C",[4],94%
same,"viability, T/C",[5],65.5%
same,"viability, T/C",[6],39.3%
same,"viability, T/C",[7],97.3%
same,"viability, T/C",[8],94.7%
same,"viability, T/C",[9],99.7%
same,"viability, T/C",[10],75.6%
same,"viability, T/C",[11],66.3%
same,"viability, T/C",[12],33.1%
same,"viability, T/C",[13],92.4%
same,"viability, T/C",[14],102%
same,"viability, T/C",[15],98.8%
same,"viability, T/C",[16],81.8%
same,"viability, T/C",[17],58.8%
same,"viability, T/C",[18],28.5%
same,"viability, T/C",[19],111%
same,"viability, T/C",[20],106%
same,"viability, T/C",[21],92.2%
same,"viability, T/C",[22],88.1%
same,"viability, T/C",[23],62.7%
same,"viability, T/C",[24],31.6%
same,"viability, T/C",[25],101%
same,"viability, T/C",[26],98.6%
same,"viability, T/C",[27],94%
same,"viability, T/C",[28],82.3%
same,"viability, T/C",[29],52.1%
same,"viability, T/C",[30],31.8%
same,"viability, T/C",[31],92.5%
same,"viability, T/C",[32],76.1%
same,"viability, T/C",[33],70.4%
same,"viability, T/C",[34],58.4%
same,"viability, T/C",[35],48.1%
same,"viability, T/C",[36],34.1%
CCc1cc2c(N3CCc4c(cc(Cn5ccnc5)cc4-c4cn(C)nc4C(F)(F)F)C3=O)ccnc2c(OC)n1 + Cc1cccc(N(C)C(=O)C2C(O)CCN2c2nc(C)cc(C(F)(F)F)c2C#N)c1,IC50,second compound 0.0316 µM,> 10 µM
same,IC50,second compound 0.1 µM,9.08 µM
same,IC50,second compound 0.316 µM,5.19 µM
same,IC50,second compound 1 µM,7.18 µM
same,IC50,second compound 3.16 µM,4.89 µM
same,IC50,second compound 10 µM,1.98 µM
same,"viability, T/C",[1],104%
same,"viability, T/C",[2],94.4%
same,"viability, T/C",[3],86.5%
same,"viability, T/C",[4],96.9%
same,"viability, T/C",[5],60.5%
same,"viability, T/C",[6],58.8%
same,"viability, T/C",[7],113%
same,"viability, T/C",[8],104%
same,"viability, T/C",[9],99.4%
same,"viability, T/C",[10],84%
same,"viability, T/C",[11],59.7%
same,"viability, T/C",[12],49.7%
same,"viability, T/C",[13],100%
same,"viability, T/C",[14],110%
same,"viability, T/C",[15],92.3%
same,"viability, T/C",[16],85.8%
same,"viability, T/C",[17],59.8%
same,"viability, T/C",[18],36.5%
same,"viability, T/C",[19],94.7%
same,"viability, T/C",[20],79%
same,"viability, T/C",[21],100%
same,"viability, T/C",[22],77.8%
same,"viability, T/C",[23],75.1%
same,"viability, T/C",[24],40.2%
same,"viability, T/C",[25],110%
same,"viability, T/C",[26],79.9%
same,"viability, T/C",[27],93.2%
same,"viability, T/C",[28],76.1%
same,"viability, T/C",[29],64.6%
same,"viability, T/C",[30],31.6%
same,"viability, T/C",[31],87.9%
same,"viability, T/C",[32],67.9%
same,"viability, T/C",[33],60.5%
same,"viability, T/C",[34],65.8%
same,"viability, T/C",[35],46.3%
same,"viability, T/C",[36],30.5%
COc1cc2cc(C(=O)CCC(=O)O)sc2cc1OC + Cc1cccc(N(C)C(=O)C2C(O)CCN2c2nc(C)cc(C(F)(F)F)c2C#N)c1,IC50,second compound 0.0316 µM,> 10 µM
same,IC50,second compound 0.1 µM,> 10 µM
same,IC50,second compound 0.316 µM,> 10 µM
same,IC50,second compound 1 µM,> 10 µM
same,IC50,second compound 3.16 µM,> 10 µM
same,IC50,second compound 10 µM,> 10 µM
same,"viability, T/C",[1],104%
same,"viability, T/C",[2],87.6%
same,"viability, T/C",[3],97.2%
same,"viability, T/C",[4],101%
same,"viability, T/C",[5],110%
same,"viability, T/C",[6],92.4%
same,"viability, T/C",[7],92.8%
same,"viability, T/C",[8],87%
same,"viability, T/C",[9],92%
same,"viability, T/C",[10],107%
same,"viability, T/C",[11],103%
same,"viability, T/C",[12],86%
same,"viability, T/C",[13],115%
same,"viability, T/C",[14],94.8%
same,"viability, T/C",[15],89.6%
same,"viability, T/C",[16],87.8%
same,"viability, T/C",[17],101%
same,"viability, T/C",[18],74.5%
same,"viability, T/C",[19],86.4%
same,"viability, T/C",[20],77.4%
same,"viability, T/C",[21],89.2%
same,"viability, T/C",[22],99.7%
same,"viability, T/C",[23],81.3%
same,"viability, T/C",[24],70.7%
same,"viability, T/C",[25],96.2%
same,"viability, T/C",[26],87.1%
same,"viability, T/C",[27],84.4%
same,"viability, T/C",[28],102%
same,"viability, T/C",[29],83.1%
same,"viability, T/C",[30],82.3%
same,"viability, T/C",[31],77.1%
same,"viability, T/C",[32],91.8%
same,"viability, T/C",[33],77.4%
same,"viability, T/C",[34],79.4%
same,"viability, T/C",[35],88.7%
same,"viability, T/C",[36],85.8%
O=C(Nc1ccc(O)c(NS(=O)(=O)c2ccc(F)cc2)c1)c1ccc(-c2ccccc2)cc1 + Cc1cccc(N(C)C(=O)C2C(O)CCN2c2nc(C)cc(C(F)(F)F)c2C#N)c1,IC50,second compound 0.0316 µM,4.14 µM
same,IC50,second compound 0.1 µM,5.42 µM
same,IC50,second compound 0.316 µM,3.71 µM
same,IC50,second compound 1 µM,3.42 µM
same,IC50,second compound 3.16 µM,2.08 µM
same,IC50,second compound 10 µM,1.47 µM
same,"viability, T/C",[1],89.4%
same,"viability, T/C",[2],92.9%
same,"viability, T/C",[3],97.1%
same,"viability, T/C",[4],96.7%
same,"viability, T/C",[5],60.3%
same,"viability, T/C",[6],16%
same,"viability, T/C",[7],98.5%
same,"viability, T/C",[8],95.8%
same,"viability, T/C",[9],101%
same,"viability, T/C",[10],92.7%
same,"viability, T/C",[11],75.6%
same,"viability, T/C",[12],20.9%
same,"viability, T/C",[13],101%
same,"viability, T/C",[14],97.1%
same,"viability, T/C",[15],99.3%
same,"viability, T/C",[16],70.6%
same,"viability, T/C",[17],58%
same,"viability, T/C",[18],19.3%
same,"viability, T/C",[19],103%
same,"viability, T/C",[20],90.2%
same,"viability, T/C",[21],101%
same,"viability, T/C",[22],101%
same,"viability, T/C",[23],52.5%
same,"viability, T/C",[24],15.6%
same,"viability, T/C",[25],84.3%
same,"viability, T/C",[26],110%
same,"viability, T/C",[27],87.6%
same,"viability, T/C",[28],75.7%
same,"viability, T/C",[29],35.5%
same,"viability, T/C",[30],17.9%
same,"viability, T/C",[31],76.8%
same,"viability, T/C",[32],95.1%
same,"viability, T/C",[33],74.6%
same,"viability, T/C",[34],59.1%
same,"viability, T/C",[35],31.5%
same,"viability, T/C",[36],11.4%
